This is an account of results in patent US11992011B2, “Compounds for controlling plant pathogens” (VIB VZW, priority 2017, dated 2024).

In assay [1] the test system is Arabidopsis thaliana seedlings. The conditions noted are these: continuous exposure; Steenackers et al. 2016; cited from earlier work.
For assay [2], the system named is tobacco cell cultures (Nicotinium tabacum BY2). The conditions noted are these: Schoch et al., 2002; cited from earlier work.
Assay [3] has as its system Meloidogyne incognita. In words: M. incognita infection in NahG-expressing tomato (Example 17). It is filed as in vivo. How it is done: Infection experiments with M. incognita were performed in the same manner as those with M. graminicola, except that plants were harvested 31 days after inoculation instead of 14 days. At this point, the plants were phenotyped by measuring the root length with a ruler and in some experiments by measuring leaf area using the EasyLeafArea software (Easlon and Bloom, 2014) and by determining shoot dry mass after 72 hours of drying in an oven at 70° C. Galls were stained and counted as described above.
To evaluate this further, a tomato line deficient in salicylic acid biosynthesis and signaling respectively was treated with PA. […] If this line still responds to PA, it further strengthens the notion that salicylic acid accumulation is not the cause of C4H inhibitor-induced nematode resistance, for which evidence in rice was already provided in Example 16.

For assay [4], the system named is Fusarium proliferatum (isolate Fpr18). Kind of assay: Onion seedling emergence with PA seed coating, Fusarium proliferatum (Example 12). The format is in vivo. The conditions noted are these: onion seeds with 300 μM PA coating vs mock coating. As for the experimental part: Seed coatings were applied by dipping seeds in a coating solution containing 20 g/I high viscosity carboxymethylcellulose (Sigma-Aldrich, Saint Louis, USA) in distilled water as well as 300 μM of the target compound. Seeds were then dried overnight at room temperature.
Onion seeds were coated with a 300 μM PA solution as outlined in the chemical treatments section. F. oxysporum (isolate Foc26), F. solani (isolate Fso18) and F. proliferatum (isolate Fpr18) were originally extracted from Vietnamese onion fields. Inoculum was obtained as described in the fungal culture section. The inoculum was diluted to a concentration of 1.0×10^7 spores per ml with sterile PBS buffer. The coated seeds were then soaked in the spore solution for one hour. To avoid excessive PA leaching from the PA coating, 100 μM of PA was added to the spore solution.
After soaking in the PA solution, seeds were left to dry for thirty minutes. Twenty seeds were then sowed per pot in potting soil; three pots were used per treatment and per fungal isolate (for a total of 60 seeds per treatment-isolate combination). The pots were covered in cling film and left on a window sill at room temperature. After eight and ten days, the number of germinated seedlings per pot was counted.
Germination experiments were analyzed by fitting a three-parameter log-logistic model as implemented in the R drc package.

Assay [5] concerns OsAOS2. In words: qRT-PCR in rice roots, OsAOS2 (Example 20). It is filed as in vivo, Oryza sativa. The conditions noted are these: rice cv. Bomba root tissue; same samples as Example 19. As for the experimental part:
(§1) After quality control, qPCR was carried out.
(§2) To test whether other defense hormones might be involved, genes responsive to jasmonic acid (the biosynthesis gene OsAOS2) and auxin (the auxin conjugating enzyme OsGH3.1) were investigated. Moreover, the callose-degrading enzyme OsGNS5, downregulation of which is associated with basal defense, was also investigated. The qRT-PCR analysis was performed on the same samples used in the previous Example.

Assay [6] concerns OsGH3.1. In words: qRT-PCR in rice roots, OsGH3.1 (Example 20). The format is in vivo, Oryza sativa. The conditions noted are these: rice cv. Bomba root tissue; same samples as Example 19. As for the experimental part: as §1, §2
Assay [7] deals with Pythium splendens. Kind of assay: Pythium splendens in green bean with PA seed coating (Example 22). It is filed as in vivo. As for the experimental part:
FIG. 25: (a) effect of a 500 μM piperonylic acid coating compared to a mock coating on germination in soil with or without Pythium splendens (PA: piperonylic acid coating, no Pythium; CON: mock coating, no Pythium; PA+Ps: piperonylic acid coating, Pythium splendens; CON+Ps: mock coating, Pythium splendens); N=45. (b) plant health score of emerged seedlings fourteen days after the start of the experiment. Scores: 0=seedling died after emergence; 1=seedling alive but stunted; 2=seedling healthy. (c) primary root length fourteen days after the start of the experiment, with bars indicating means and error bars standard deviation.

Assay [8] has as its system Pratylenchus penetrans. Kind of assay: Pratylenchus penetrans infection in wheat cv. Sahara (Example 10). The format is in vivo. The conditions noted are these: PA foliar spray. How it is done:
For Examples 1, 5 and 10, seeds of the winter wheat cultivar Sahara (Aveve Agrarisch, Landen, Belgium) were used. Seeds were washed in a 10% ethanol solution to remove any residual traces of fungicide and then germinated on wet paper at room temperature for four days; seeds were transferred to SAP tubes and placed in a growth chamber (25° C., 16 hours per day of light). Plants were watered with 8 ml of half-strength Hoagland solution every two days for the first ten days and with 8 ml of full strength Hoagland solution every two days afterwards.
A pure culture of P. penetrans grown on carrot disks was kindly provided by Giuseppi Lucarelli (Horto Service, Noicattaro, Italy). The nematodes were multiplied by inoculating approximately 100 nematodes on a sterilized carrot disk, placing this disk in a sealed petri dish and incubating the dish at 24° C. for six weeks in the dark. Carrots were sterilized by washing and peeling them, then dipping them in ethanol and finally burning the ethanol off in a Bunsen burner.
Unless otherwise mentioned, all chemicals for nematode experiments were applied as a foliar spray consisting of the target compound at a concentration of 300 μM together with 0.1% (v/v) Tween 20 surfactant (Calbiochem) in distilled water. Again unless otherwise mentioned, all treatments for the nematode experiments were carried out three times: one and eight days before pathogen inoculation and seven days after pathogen inoculation. In all cases, plants were sprayed until run-off with an atomizer.
Infection experiments with P. penetrans were performed by inoculating host plants 14 days after transfer to SAP by introducing 500 nematodes to their root system using a micro pipette. Plants were harvested 31 days after inoculation. At this point, the plants were phenotyped. Lesions were counted manually using a magnifying glass after washing and spreading open the root system. Nematodes were counted by macerating the root systems with a kitchen blender, placing a root system in 30 ml of autoclaved tap water for 24 hours and finally counting the number of nematodes in four 500 μl aliquots from each 30 ml root suspension under a binocular microscope.

[9] abbreviates: infected wheat, mean ± SD, n = 8.

As for `O=C(O)/C=C/c1ccc2c(c1)OCO2` [MDCA, 3,4-methylenedioxycinnamic acid], the IC50 in assay [1] was 5.07 µM.
On to `O=C(O)c1ccc2c(c1)OCO2` [PA, Piperonylic acid], for which the “accumulation of salicylic acid” value in assay [2] is “induces the accumulation of the defense hormone salicylic acid”. Besides, the “change of number of galls, PA-treated NahG plants vs untreated wild type plants” value in assay [3] (NahG-expressing (SA-deficient) tomato) was −36%. Besides, in assay [3] (NahG-expressing tomato, not significant), the “difference in number of galls, PA-treated NahG plants vs PA-treated wild type plants” value is given as “+9%”. Further, in assay [4], the “improvement of seedling emergence” value is recorded as “+79%”. The “Fold change vs. control, OsAOS2 expression” value in assay [5] was 0.71. Further, the “Fold change vs. control, OsGH3.1 expression” value in assay [6] came to 1.21. Further, the “emergence in soil containing P. splendens” value in assay [7] (500 μM PA seed coating vs mock coating) was “did not improve emergence”. In assay [7] (500 μM PA seed coating vs mock coating, fourteen days), the “seedling health after emergence” value is reported as “significantly improved”. In addition, the “primary root length in P. splendens-infested soil vs control-coated seeds” value in assay [7] (500 μM PA seed coating, fourteen days) is “longer”. In assay [8] (setting [9]), the Number of lesions is 14.4 ± 6.8 and the “Number of nematodes per root system” value was 165.6 ± 61.1. Also, in assay [8] (wheat, vs control), the “change of mean number of P. penetrans nematodes found in the root system” value was −32% and the “change of mean number of root lesions in the host plant” value is −39%.
